Test results: paper PMC7577153, “Identification of Small-Molecule Inhibitors Targeting Porphyromonas gingivalis Interspecies Adherence and Determination of Their In Vitro and In Vivo Efficacies” (Antimicrobial Agents and Chemotherapy, 2020)

Experiments:
P. gingivalis = experiment: microbicidal activity: growth curve in medium with compound; format: cell-based, Porphyromonas gingivalis; details: 40 μM, 24 h, OD600
Method: (§1) To confirm that N7, N17, and V8 function by inhibiting P. gingivalis adherence to S. gordonii rather than acting as antibacterial agents, the microbicidal activity of the compounds was determined by growing the organisms in medium containing 40 μM of each compound for 24 h. […] The structures of compounds N7, N17, and V8 are shown in Fig. 3A, B, and C, respectively. In addition, overlays of compound N17 with the NITVK motif and compound V8 with the VXXLL motif of Ag I/II are shown in Fig. 3D and E, respectively.
(§2) FIG 2 S. gordonii (A) and P. gingivalis (B) were grown for 24 h in medium containing 40 μM of each compound, and growth was quantified at various time points by measuring the OD600 for each culture. One-way analysis of variance (ANOVA) was performed to determine statistical significance.
(§3) P. gingivalis ATCC 33277 was cultured in reduced Trypticase soy broth-yeast extract (TSBY) medium comprised of 30 g/liter TSB (Difco Laboratories Inc., Detroit, MI), 5% (wt/vol) yeast extract supplemented with 5 mg/liter hemin and 1 mg/liter menadione under anaerobic conditions (10% CO2, 10% H2, and 80% N2) at 37°C for 48 h. Reduced TSBY medium was prepared by incubating the medium under anaerobic conditions at 37°C for 24 h prior to bacterial inoculation. Streptococcus gordonii DL1 was grown in brain heart infusion (BHI) (Difco Laboratories Inc.) broth supplemented with 5% (wt/vol) yeast extract under anaerobic conditions as described above.

J774A.1 cells [1] = experiment: total cellular ATP (CellTiterGlo); format: cell-based, mouse; details: J774A.1 cells, 5, 20 and 40 μM, 18 h
Method: (§4) To determine the metabolic activity of cells, the total cellular ATP level was measured in cell culture samples using the CellTiterGlo reagent (Promega Inc. Madison, WI). Cells were grown as described above in the presence of the desired concentration of compounds. The spent medium was decanted, and cells were washed three times with PBS and subsequently incubated with 100 μl of the CellTiterGlo substrate. To facilitate the reaction, plates were incubated at room temperature for 2 min with shaking and for an additional 10 min without shaking. Total light production was measured using a Victor 3 multilabel plate reader (PerkinElmer).

J774A.1 cells [2] = experiment: LDH release (CytoTox 96); format: cell-based, mouse; details: 18 h
Method: The CytoTox 96 nonradioactive cytotoxicity assay (Promega Inc. Madison, WI) was used to determine extracellular lactate dehydrogenase activity (LDH) in TIGK, J774A.1, and HL60 cell cultures treated with the test compounds. […] After an 18-h incubation, the cell supernatant was collected by centrifugation at 250 × g for 4 min, and 50 μl of cell free supernatant was transferred into wells of a fresh 96-well microtiter plate. Subsequently, 50 μl of the LDH substrate was added in each well and incubated at room temperature for 30 min. Reactions were stopped by adding 50 μl of the stop solution according to the manufacturer’s protocol, and the endpoint was measured by determining optical density at 490 nm. Cells treated with culture medium containing 0.1% DMSO or with medium alone served as negative controls, and cells incubated with 15-μl lysis buffer (supplied by manufacturer) for 1 h served as a positive control for lysis. All samples were tested in triplicate.

S. gordonii = experiment: microbicidal activity: growth curve in medium with compound; format: cell-based, Streptococcus gordonii; details: 40 μM, 24 h, OD600
Method: as §1, §2, §3

HL60 cells = experiment: total cellular ATP (CellTiterGlo); format: cell-based, human; details: HL-60 cells, 5, 20 and 40 μM, 18 h
Method: as §4

P. gingivalis virulence = experiment: murine model of periodontitis (alveolar bone loss); format: in vivo, BALB/c/ByJ mice; details: for alveolar bone loss relative to sham-infected mice / alveolar bone loss versus infected untreated mice: mice infected with S. gordonii and P. gingivalis, compound 40 μM; for alveolar bone loss versus infected untreated mice: P < 0.001
Method: The in vivo activity of compounds N7, N17, and V8 was determined using a murine model of periodontitis as described by Deap et al. ([16]). […] Therefore, P. gingivalis virulence was assessed by alveolar bone loss, which was determined by measuring the distance from the alveolar bone crest (ABC) to the cemento enamel junction (CEJ).
The protocol used in this study (protocol 16486) was approved by the Institutional Animal Care and Use Committee at the University of Louisville under federal guidelines for the use and care of laboratory animals. Ten-week-old BALB/c/ByJ specific-pathogen-free mice were obtained from Jackson Laboratory (Bar Harbor, ME) and housed in the University of Louisville Research Resource Center animal facility. During the entire course of the study, mice were fed with Lab Diet 5001 (Purina Mills, LLC, Gray Summit, MO).
Oral infection of the mice was carried out essentially as described by Deap et al. ([18]). Prior to infection, mice were subjected to a combined antibiotic treatment for 10 days by providing animals with water ad libitum containing 800 μg/ml sulfamethoxazole (MP Biomedical, Solon, OH) and 400 μg/ml trimethoprim (Sigma, St. Louis, MO). Four days after the conclusion of the antibiotic treatment, mice were infected by oral gavage with 10^9 CFU of S. gordonii suspended in 2% carboxymethylcellulose (CMC; MP Biomedical) in sterile PBS using a 2.25-mm feeding needle (Popper and Son, Inc., New Hyde Park, NY). Infections were conducted every other day for a period of 10 days. Subsequently, mice were infected with 10^9 CFU P. gingivalis suspended in 2% CMC in PBS alone or in 2% CMC in PBS containing the small-molecule inhibitors every other day for 10 days. After the last infection with P. gingivalis, the mice were rested for 47 days and then euthanized by carbon dioxide asphyxiation.
To obtain the mouse skulls, the heads were removed and autoclaved for 15 min to remove flesh and musculature. The defleshed skulls were then immersed in 3% hydrogen peroxide overnight at room temperature to remove any remaining flesh. The skulls were submerged in deionized water to remove residual hydrogen peroxide, soaked in 1% bleach solution for 30 sec, sonicated at 14 V for 1 min, and washed again with deionized water. Samples were brushed using toothpaste, sonicated again in 1% bleach for an additional 30 sec at 14 V, and washed with water. The cleaned skulls were stained by immersion in 1% methylene blue for 15 sec, followed by washing with water until the excess dye was removed.
To measure alveolar bone loss, a dissecting microscope fitted with a video imaging marker measurement system (model VIA-170K; Fryer) was used. Bone loss was determined by measuring the distance between the alveolar bone crest (ABC) and cemento-enamel junction (CEJ) at eight sites on the buccal sides of both left and right maxillary molars. […] Data were analyzed using one-way analysis of variance (ANOVA; Graph Pad Prism, La Jolla, CA), and a pairwise parametric analysis of variance using a Bonferroni multiple-comparison posttest was used to determine the statistical difference among the individual mouse groups. A P value of ≤0.05 was considered statistically significant.

SMILES	growth curve versus medium alone or 0.1% DMSO (P. gingivalis)	ATP levels (J774A.1 cells [1])	LDH release (J774A.1 cells [2]; J774A.1 cells, 5, 20 and 40 μM)	growth curve versus medium alone or 0.1% DMSO (S. gordonii)	ATP levels (HL60 cells)	alveolar bone loss relative to sham-infected mice (P. gingivalis virulence)	alveolar bone loss versus infected untreated mice (P. gingivalis virulence)	LDH release (J774A.1 cells [2]; J774A.1 cells, 20 μM and 40 μM)	overt signs of distress or toxicity in treated mice (P. gingivalis virulence; transient exposure (∼20 min) during infection)
Cc1cc([C@H]2CCCN(CC(=O)NC3(C#N)CCCC3)C2)n[nH]1 [V8, N-(1-cyanocyclopentyl)-2-[3-(5-methyl-1H-pyrazol-3-yl)piperidin-1-yl] acetamide]	not significantly different	no significant effect	no significant effect	not significantly different	no significant effect	modest increase in bone loss relative to the sham-infected group	significant reduction in alveolar bone loss		
O=C(Nc1ccccc1O)c1cccc(N2C(=O)c3ccc(C(=O)Nc4ccccc4O)cc3C2=O)c1 [N17, N-(2-hydroxyphenyl)-2-{3-[(2-hydroxyphenyl)carbamoyl]phenyl}-1,3-dioxo-2,3-dihydro-1H-isoindole-5-carboxamide]	not significantly different	no significant effect	no significant effect	not significantly different	no significant effect	not significantly different from sham-infected animals	significant reduction in alveolar bone loss		
Cl.N=c1n(CCN2CCCCC2)c2ccccc2n1CC(O)COc1ccc(Cl)cc1 (centres unmarked) [N7, 1-(4-chlorophenoxy)-3-{2-imino-3-[2-(piperidin-1-yl)ethyl]-2,3-dihydro-1H-1,3-benzodiazol-1-yl}propan-2-ol hydrochloride]	not significantly different			not significantly different		modest increase in bone loss relative to the sham-infected group	significant reduction in alveolar bone loss	significant increases	did not exhibit any overt signs of distress or toxicity
